# In the supplement of paper PMC11821682:
# What was measured:
# Danio rerio embryo [1] = experiment: LEL larval photomotor response dark phase 120 hpf
# Protocol: (§1)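 ZBEscreen: dechorionated Tropical 5D zebrafish embryos were exposed from 4 hpf in 96-well plates (1% DMSO, 28 °C). All compounds were first tested at 100 µM; hits were retested at 0.005-100 µM. Morphology and mortality were scored at 120 hpf and fitted as BMC10 (3-parameter log-logistic, extra risk). The embryonic photomotor response at 24 hpf and the larval photomotor response at 120 hpf are given as lowest effect levels (K-S test, p<0.01). NA = not significant up to 100 µM; NT = not tested.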
# Danio rerio embryo [2] = experiment: BMC10 any morphological effect or mortality at 120 hpf; higher = less toxic
# HL-60 = experiment: Cell Health Index (toxicity pseudo-probability over dose series) (index 0-1); higher = more cytotoxic / cell stress;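 also: HL-60 cells exposed 4 h at 37 °C to ten threefold dilutions spanning 5 nM to 100 µM, multiparametric flow cytometry features scored by machine-learning classification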
# Danio rerio embryo [3] = experiment: LEL embryonic photomotor response 24 hpf
# Protocol: as §1
Compound,LEL larval photomotor response dark phase 120 hpf (Danio rerio embryo [1]),BMC10 any morphological effect or mortality (Danio rerio embryo [2]),Cell Health Index (HL-60),LEL embryonic photomotor response 24 hpf (Danio rerio embryo [3])
C[C@H]1CC[C@@]2(OC1)O[C@H]1C[C@H]3[C@@H]4CC[C@@H]5C[C@@H](O[C@@H]6O[C@H](CO)[C@H](O)[C@H](O)[C@H]6O[C@@H]6O[C@H](CO)[C@@H](O)[C@H](O)[C@H]6O)CC[C@]5(C)[C@H]4CC[C@]3(C)[C@H]1[C@@H]2C [Timosaponin AIII],> 100 µM,> 100 µM,0.935,> 100 µM
O=c1cc(-c2ccc(O)cc2)oc2cc(O)cc(O)c12 [Apigenin],> 100 µM,> 100 µM,0.288,> 100 µM
"C=C1CC[C@@H]2[C@](C)(CO)[C@H](O)CC[C@@]2(C)[C@@H]1/C=C/C1=CCOC1=O [14-deoxy-11,12-didehydro Andrographolide]",> 100 µM,> 100 µM,0.43,100 µM
O=C(O)CCCCC1CCSS1 (racemic) [DL-alpha-Lipoic acid],> 100 µM,> 100 µM,0.172,> 100 µM
C/C=C/C[C@@H](C)[C@@H](O)[C@H]1C(=O)N[C@@H]([C@@H](C)O)C(=O)N(C)CC(=O)N(C)[C@@H](CC(C)C)C(=O)N[C@@H](C(C)C)C(=O)N(C)[C@@H](CC(C)C)C(=O)N[C@@H](C)C(=O)N[C@H](C)C(=O)N(C)[C@@H](CC(C)C)C(=O)N(C)[C@@H](CC(C)C)C(=O)N(C)[C@@H](C(C)C)C(=O)N1C [Cyclosporin C],3.7 µM,> 100 µM,0.918,33.3 µM
Cc1cc(C)nc(NS(=O)(=O)c2ccc(NC(=S)NC(=O)COc3ccc(Br)cc3Cl)cc2)n1 [ZCL 278],> 100 µM,> 100 µM,0.221,100 µM
S=C([S-])OC1CC2CC1C1CCCC21.[K+] (configuration not stated) [D609 parent],> 100 µM,> 100 µM,0.277,> 100 µM
O=C(OC[C@H]1O[C@@H](OC(=O)c2cc(O)c(O)c(OC(=O)c3cc(O)c(O)c(O)c3)c2)[C@H](OC(=O)c2cc(O)c(O)c(OC(=O)c3cc(O)c(O)c(O)c3)c2)[C@@H](OC(=O)c2cc(O)c(O)c(OC(=O)c3cc(O)c(O)c(O)c3)c2)[C@@H]1OC(=O)c1cc(O)c(O)c(OC(=O)c2cc(O)c(O)c(O)c2)c1)c1cc(O)c(O)c(OC(=O)c2cc(O)c(O)c(O)c2)c1 [Chinese Gallotannin],> 100 µM,32.8 µM,0.935,100 µM
CO[C@H]1O[C@@H]2O[C@@]3(C)CC[C@H]4[C@H](C)CC[C@@H]([C@H]1C)[C@@]24OO3 [Artemether],0.41 µM,3.55 µM,0.289,11.1 µM
CC1(C)CC(NC(=O)C(=O)Nc2ccc(Cl)cc2)CC(C)(C)N1 [NBD-556],11.1 µM,45.7 µM,0.302,100 µM
CC(=O)c1c(O)cc(O)cc1O.O [Phloroacetophenone],> 100 µM,> 100 µM,0.231,> 100 µM
CCC(=O)c1ccc(F)c([C@@H]2C[C@@H]2NC(=O)Nc2ccc(C#N)cn2)c1O [MIV-150],> 100 µM,> 100 µM,0.306,> 100 µM
CCS(=O)(=O)Nc1ccc2c(c1)/C(=C(/Nc1ccc(CN3CCCCC3)cc1)c1ccccc1)C(=O)N2 [Hesperadin],> 100 µM,2.02 µM,0.882,3.7 µM
OC[C@H]1O[C@@H](O[C@@H]2OC=C[C@H]3[C@H](O)[C@@H]4O[C@]4(CO)[C@@H]23)[C@H](O)[C@@H](O)[C@@H]1O [Catalpol],> 100 µM,> 100 µM,0.184,> 100 µM
Oc1cc(O)c2c(c1)O[C@H](c1ccc(O)c(O)c1)[C@H](O)[C@H]2c1c(O)cc(O)c2c1O[C@H](c1ccc(O)c(O)c1)[C@@H](O)C2 [Procyanidin B1],> 100 µM,> 100 µM,0.406,> 100 µM
CC(C)C[C@H](NC(=O)[C@H]1O[C@@H]1C(=O)O)C(=O)NCCCCNC(=N)N [E-64],> 100 µM,> 100 µM,0.121,> 100 µM
C=C(C)[C@@H]1CC[C@]2(C(=O)O)CC[C@]3(C)[C@H](CC[C@@H]4[C@@]5(C)CC[C@H](O)C(C)(C)[C@@H]5CC[C@]43C)[C@@H]12 [Betulinic acid],100 µM,> 100 µM,0.4,> 100 µM
CCOC(=O)[C@H]1O[C@@H]1C(=O)N[C@@H](CC(C)C)C(=O)NCCC(C)C [Aloxistatin],> 100 µM,10.6 µM,0.151,33.3 µM
C[C@H]1CO[C@@H]2Cn3cc(C(=O)NCc4ccc(F)cc4F)c(=O)c(O)c3C(=O)N12 [Cabotegravir],> 100 µM,> 100 µM,0.321,> 100 µM

Compound,LEL larval photomotor response dark phase 120 hpf (Danio rerio embryo [1]),BMC10 any morphological effect or mortality (Danio rerio embryo [2]),Cell Health Index (HL-60),LEL embryonic photomotor response 24 hpf (Danio rerio embryo [3])
FC(F)(F)c1cc(C(F)(F)F)c2ccc3nc(-c4nnco4)cn3c2n1 [RO8191],11.1 µM,26.9 µM,0.274,11.1 µM
Cl.N=c1ccn2c(n1)O[C@H]1[C@H](O)[C@@H](CO)O[C@H]12 [Cyclocytidine],> 100 µM,> 100 µM,0.207,> 100 µM
CCN(CC)Cc1cc(Nc2ccnc3cc(Cl)ccc23)ccc1O [Amodiaquine],11.1 µM,4.04 µM,0.271,1.23 µM
Ic1cccc(/C=N/Nc2nc(N3CCOCC3)nc(N(c3ccccc3)c3ccccc3)n2)c1 [Vacuolin-1],> 100 µM,> 100 µM,0.271,33.3 µM
C[C@H](NC(=O)Cc1cc(F)cc(F)c1)C(=O)N[C@@H]1C(=O)N(C)c2ccccc2-c2ccccc21 [DBZ],0.41 µM,0.365 µM,0.293,11.1 µM
O=c1ccc2cc3ccoc3cc2o1 [Psoralen],33.3 µM,29.2 µM,0.105,100 µM
O=C(Nc1ccccc1F)N[C@H]1N=C(c2ccccc2)c2ccccc2NC1=O [RSV-604],> 100 µM,> 100 µM,0.368,> 100 µM
O=C1NC(=O)c2c1c1c3ccccc3[nH]c1c1[nH]c3ccccc3c21 [Arcyriaflavin A],> 100 µM,1.1 µM,0.393,> 100 µM
O=C(Nc1c(Cl)cncc1Cl)c1ccc(OC(F)F)c(OCC2CC2)c1 [Roflumilast],0.14 µM,> 100 µM,0.296,0.015 µM
N#C/C(=C\c1ccc(O)c(O)c1)C(=O)NCCCc1ccccc1 [Tyrphostin AG 555],> 100 µM,1.13 µM,0.494,> 100 µM
C[C@@]1(O)[C@H](O)[C@@H](CO)O[C@H]1n1ccc(N)nc1=O [2'-C-Methylcytidine],> 100 µM,> 100 µM,0.129,> 100 µM
O=c1cc(-c2ccccc2)oc2cc(O)c(O)c(O)c12 [Baicalein],> 100 µM,> 100 µM,0.551,> 100 µM
CC(=O)O/N=C1/C(=C2\C(=O)Nc3cc(Br)ccc32)Nc2ccccc21 [BIO-Acetoxime],33.3 µM,> 100 µM,0.715,> 100 µM
CCC(CC)O[C@@H]1C=C(C(=O)O)C[C@H](N)[C@H]1NC(C)=O [Oseltamivir acid],> 100 µM,> 100 µM,0.174,0.046 µM
Cl.Nc1c(Br)cc(Br)cc1CN[C@H]1CC[C@H](O)CC1 [Ambroxol],> 100 µM,42.5 µM,0.244,100 µM
CC1(C)CC[C@]2(C(=O)O[C@@H]3O[C@H](CO)[C@@H](O)[C@H](O)[C@H]3O)CC[C@]3(C)C(=CC[C@@H]4[C@@]5(C)CC[C@H](O[C@@H]6O[C@H](C(=O)O)[C@@H](O)[C@H](O)[C@H]6O[C@@H]6O[C@H](CO)[C@@H](O)[C@H](O)[C@H]6O)C(C)(C)[C@@H]5CC[C@]43C)[C@@H]2C1 [Ginsenoside Ro],,> 100 µM,0.229,
COc1cnc(-n2cnc(C)n2)c2[nH]cc(C(=O)C(=O)N3CCN(C(=O)c4ccccc4)CC3)c12 [Temsavir],,> 100 µM,0.146,
CC(C)[C@H](N)C(=O)OCC(CO)OCn1cnc2c(=O)nc(N)[nH]c21.Cl (some centres not stated) [Valganciclovir],,> 100 µM,0.247,
